SMILES strings stand for the structures.

For this assay, the target named is Substance-P receptor (Homo sapiens, UniProt P25103). The assay is described as follows: Displacement of [125I]-substance P from hNK1 receptor in chinese hamster ovarian (CHO) cells. Format: cell-based. (In general: Displacement assays read how much labelled ligand stays bound in the presence of the test substance.)
Substance-P receptor, sequence (P25103 whole entry): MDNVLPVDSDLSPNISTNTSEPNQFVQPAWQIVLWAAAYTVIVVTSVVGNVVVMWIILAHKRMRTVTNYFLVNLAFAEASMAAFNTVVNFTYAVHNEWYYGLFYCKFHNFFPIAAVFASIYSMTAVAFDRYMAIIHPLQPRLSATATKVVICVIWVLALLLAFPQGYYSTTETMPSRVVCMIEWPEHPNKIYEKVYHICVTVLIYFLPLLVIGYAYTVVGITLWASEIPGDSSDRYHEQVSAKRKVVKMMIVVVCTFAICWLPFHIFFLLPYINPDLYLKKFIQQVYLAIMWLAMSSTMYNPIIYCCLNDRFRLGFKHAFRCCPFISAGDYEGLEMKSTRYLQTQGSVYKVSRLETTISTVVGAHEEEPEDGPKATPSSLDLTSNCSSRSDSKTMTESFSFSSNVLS
Turning to `CS(=O)(=O)Nc1ccccc1N1CCN(C(=O)[C@H](COCc2ccc(Cl)c(Cl)c2)NCc2ccccc2)CC1`, the IC50 (as a rule, the midpoint of a concentration-inhibition curve) was determined as 4.8 nM.

`CS(=O)(=O)N(CC1CCN(C(=O)[C@H](COCc2ccc(Cl)c(Cl)c2)NCc2ccccc2)CC1)c1ccccc1` showed an IC50 of 547 nM.

In turn, `O=C([C@H](COCc1ccc(Cl)c(Cl)c1)NCc1ccccc1)N1CCC2(CCc3ccccc32)CC1` returned an IC50 of 602 nM. The same measure for `Cc1ccccc1C1CCN(C(=O)[C@H](COCc2ccc(Cl)c(Cl)c2)NCc2ccccc2)CC1`: 330 nM. Under `CN(c1ccccc1C1CCN(C(=O)[C@H](COCc2ccc(Cl)c(Cl)c2)NCc2ccccc2)CC1)S(C)(=O)=O` stands 61 nM; under `CS(=O)(=O)Nc1ccccc1C1CCN(C(=O)[C@H](COCc2ccc(Cl)c(Cl)c2)NCc2ccccc2)CC1`, 17 nM; under `COc1ccccc1C1CCN(C(=O)[C@H](COCc2ccc(Cl)c(Cl)c2)NCc2ccccc2)CC1`, 263 nM. For the molecule `Cc1ccccc1N1CCN(C(=O)[C@H](COCc2ccc(Cl)c(Cl)c2)NCc2ccccc2)CC1`, the IC50 came to 558 nM.

`CS(=O)(=O)N1CC2(CCN(C(=O)[C@H](COCc3ccc(Cl)c(Cl)c3)NCc3ccccc3)CC2)c2ccccc21`: the IC50 came out at 1 nM. The same measure for `COc1ccccc1N1CCN(C(=O)[C@H](COCc2ccc(Cl)c(Cl)c2)NCc2ccccc2)CC1`: 13 nM; for `CS(=O)(=O)NCC1(c2ccccc2)CCN(C(=O)[C@H](COCc2ccc(Cl)c(Cl)c2)NCc2ccccc2)CC1`: 382 nM.

Molecule `CS(=O)(=O)N1CCC2(CCN(C(=O)[C@H](COCc3ccc(Cl)c(Cl)c3)NCc3ccccc3)CC2)C1` gave an IC50 of 2500 nM.
